How the values were obtained:
[1] = biological target: Serotonin 3 (5-HT3) receptor (Rattus norvegicus) (UniProt P35563+Q9JJ16); assay: In vivo 5-hydroxytryptamine 3 receptor antagonist activity by antagonism of the von Bezold-Jarisch (B-J) reflex in anesthetized rats, (i.v.); assay type: functional, organism-based
[2] = biological target: 5-hydroxytryptamine receptor 4 (Rattus norvegicus) (UniProt Q62758); assay: lntrinsic activity relative to 5-HT receptor; assay type: functional
[3] = biological target: T1, Serotonin 3 (5-HT3) receptor (Rattus norvegicus, UniProt P35563+Q9JJ16); assay: Binding affinity to 5-hydroxytryptamine 3 receptor was determined in rat cerebro cortical membranes using [3H]quipazine.; assay type: cell membranes
T1 sequence (P35563 whole entry): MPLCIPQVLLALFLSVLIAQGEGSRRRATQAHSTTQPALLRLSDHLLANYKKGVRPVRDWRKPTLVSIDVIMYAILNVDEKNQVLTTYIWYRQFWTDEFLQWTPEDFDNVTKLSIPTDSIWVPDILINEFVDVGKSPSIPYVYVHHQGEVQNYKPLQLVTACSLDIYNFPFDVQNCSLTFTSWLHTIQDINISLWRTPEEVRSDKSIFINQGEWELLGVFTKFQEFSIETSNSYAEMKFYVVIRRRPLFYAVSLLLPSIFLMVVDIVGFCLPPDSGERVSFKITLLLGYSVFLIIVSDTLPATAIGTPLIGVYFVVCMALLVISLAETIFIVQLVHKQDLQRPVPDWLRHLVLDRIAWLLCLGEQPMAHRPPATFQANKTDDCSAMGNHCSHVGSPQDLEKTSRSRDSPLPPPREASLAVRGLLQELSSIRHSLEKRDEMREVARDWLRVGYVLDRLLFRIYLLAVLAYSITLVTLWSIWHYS
T1 sequence (Q9JJ16 whole entry): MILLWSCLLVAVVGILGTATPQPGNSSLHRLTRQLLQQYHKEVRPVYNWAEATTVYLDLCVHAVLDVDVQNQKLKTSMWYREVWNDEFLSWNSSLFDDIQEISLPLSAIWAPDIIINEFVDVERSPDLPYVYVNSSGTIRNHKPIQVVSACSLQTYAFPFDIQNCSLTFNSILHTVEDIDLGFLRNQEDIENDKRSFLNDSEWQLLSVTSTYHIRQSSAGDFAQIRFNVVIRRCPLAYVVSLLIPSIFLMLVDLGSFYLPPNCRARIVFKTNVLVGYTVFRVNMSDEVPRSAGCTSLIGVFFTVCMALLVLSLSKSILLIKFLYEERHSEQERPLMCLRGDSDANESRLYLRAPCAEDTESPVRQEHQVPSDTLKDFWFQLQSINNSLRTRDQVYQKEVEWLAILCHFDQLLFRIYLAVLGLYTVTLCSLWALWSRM

[4] = biological target: 5-hydroxytryptamine receptor 4 (Rattus norvegicus, UniProt Q62758); assay: 5-hydroxytryptamine 4 receptor agonist activity in the rat esophageal muscularis mucosae; assay type: functional
5-hydroxytryptamine receptor 4, sequence (Q62758 whole entry): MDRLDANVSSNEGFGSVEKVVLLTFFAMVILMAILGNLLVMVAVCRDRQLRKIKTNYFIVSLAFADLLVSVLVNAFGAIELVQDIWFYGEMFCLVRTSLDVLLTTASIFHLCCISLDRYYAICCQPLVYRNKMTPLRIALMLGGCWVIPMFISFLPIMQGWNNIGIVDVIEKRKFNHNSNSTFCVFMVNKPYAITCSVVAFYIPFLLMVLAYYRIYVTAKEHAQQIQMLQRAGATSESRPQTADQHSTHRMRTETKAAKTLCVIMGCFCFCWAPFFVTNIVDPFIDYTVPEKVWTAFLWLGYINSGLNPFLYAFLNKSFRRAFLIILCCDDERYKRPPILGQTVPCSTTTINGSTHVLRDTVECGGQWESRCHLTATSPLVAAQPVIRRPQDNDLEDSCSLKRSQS

5-hydroxytryptamine receptor 4 (Rattus norvegicus), sequence (Q62758 whole entry): as above

**Q.** For CN1CCC(N2C(=O)c3cccc4c(N)c(Cl)cc(c34)C2=O)CC1, which Inhibitory dose (ID50) [1] is on record?
**A.** The Inhibitory dose (ID50) was 0.288 mg/kg.

**Q.** What about the Activity [2] of the same molecule?
**A.** The Activity was 0.9.

**Q.** What about the Ki [3] of the same molecule?
**A.** The Ki was 39.8 nM.

**Q.** And the EC50 [4]?
**A.** Its EC50 is 31.6 nM.

**Q.** How did the Activity [2] turn out when COc1cc(N)c(Cl)cc1C(=O)N[C@@H]1CN2CCC1CC2 was run?
**A.** Its Activity is 0.9.

**Q.** What about the EC50 [4] of the same molecule?
**A.** Its EC50 is 63.1 nM.

**Q.** What does the source list for Nc1c(Cl)cc2c3c(cccc13)C(=O)N([C@H]1CN3CCC1CC3)C2=O?
**A.** Inhibitory dose (ID50) [1]: 0.0045 mg/kg; Ki [3]: 0.794 nM; EC50 [4]: > 1000 nM

**Q.** What does the source list for COc1cc(N)c(Cl)cc1C(=O)N[C@H]1CN2CCC1CC2 [(R)ZACOPRIDE]?
**A.** Activity [2]: 0.9; EC50 [4]: 501 nM

**Q.** What does the source list for Nc1c(Cl)cc2c3c(cccc13)C(=O)N([C@@H]1CN3CCC1CC3)C2=O?
**A.** Inhibitory dose (ID50) [1]: 0.077 mg/kg; Activity [2]: 0.8; Ki [3]: 10 nM; EC50 [4]: 12.6 nM

**Q.** With NCCc1c[nH]c2ccc(O)cc12 as the molecule, how does the Activity [2] read?
**A.** Its Activity is 1.

Source: ChEMBL document CHEMBL1151489, “N-(quinuclidin-3-YL)-1,8,-naphthalimides with 5-HT3 receptor antagonist and 5-HT4 receptor agonist properties” (Bioorg Med Chem Lett, 1993)
